Measured values taken from ChEMBL document CHEMBL3217421, “Truncated militarinone fragments identified by total chemical synthesis induce neurite outgrowth” (Medchemcomm, 2013).
Calls of active or inactive are those of the source. No cut-off for these calls is given here.

What was measured:
Format in all cases: functional, cell-based
PC-12 [1] = assay: Neuritogenic activity in rat PC12 cells assessed as induction of neurite outgrowth at 40 uM after 3 days using Giemsa staining by microscopic analysis
PC-12 [2] = assay: Neuritogenic activity in rat PC12 cells assessed as induction of neurite outgrowth at 20 uM after 3 days using Giemsa staining by microscopic analysis
PC-12 [3] = assay: Neuritogenic activity in rat PC12 cells assessed as induction of neurite outgrowth at 20 uM after 3 days using Giemsa staining by microscopic analysis in presence of ERK1/2 inhibitor PD98059
PC-12 [4] = assay: Neuritogenic activity in rat PC12 cells assessed as induction of neurite outgrowth at 2 uM after 3 days using Giemsa staining by microscopic analysis
PC-12 [5] = assay: Neuritogenic activity in rat PC12 cells assessed as induction of neurite outgrowth at 500 nM after 3 days using Giemsa staining by microscopic analysis
PC-12 [6] = assay: Neuritogenic activity in rat PC12 cells assessed as induction of neurite outgrowth at 1 uM after 3 days using Giemsa staining by microscopic analysis

Row | SMILES | Activity (PC-12 [1]) | Activity (PC-12 [2]) | also measured
1 | CCOC(=O)c1c(OC)c(-c2ccc(F)cc2)c[nH]c1=O | inactive | – | –
2 | COc1cc(-c2cccnc2)ccc1O | – | inactive | –
3 | CCOC(=O)c1c(O)c(-c2ccc(O)cc2)c[nH]c1=O | – | Active | –
4 | CCOC(=O)c1c(OC)c(-c2ccccc2)c[nH]c1=O | inactive | – | –
5 | CCOC(=O)c1c(OC)c(-c2ccc(O)cc2)cn(C)c1=O | – | Active | –
6 | CCOC(=O)c1c(OC)c(-c2ccc(NC(=O)OC(C)(C)C)cc2)c[nH]c1=O | inactive | – | –
7 | CCOC(=O)c1c(OC)c(-c2ccc(O)cc2)c[nH]c1=O | – | Active | –
8 | CCOC(=O)c1c(OC)c(-c2ccncc2)c[nH]c1=O | inactive | – | –
9 | CCOC(=O)c1c(OC)c(-c2ccc(C(C)(C)C)cc2)c[nH]c1=O | inactive | – | –
10 | CCOC(=O)c1c(OC)c(-c2ccc(O)c(OC)c2)c[nH]c1=O | – | Active | Activity (PC-12 [3]): inactive; Activity (PC-12 [4]): Active; Activity (PC-12 [5]): inactive; Activity (PC-12 [6]): Active
11 | CCOC(=O)c1c(OC)c(-c2cccnc2)c[nH]c1=O | inactive | – | –
12 | CCOC(=O)c1c(OC)c(-c2ccc(N)cc2)c[nH]c1=O | inactive | – | –
13 | CCOC(=O)c1c(OC)c(-c2ccc(OC)cc2)cn(C)c1=O | – | inactive | –
14 | CCOC(=O)c1c(OC)c(-c2ccc(OC)cc2)c[nH]c1=O | – | inactive | –
